Assay results as given in BigSolDB 2.1.

O=C1CN=C(c2ccccc2Cl)c2cc([N+](=O)[O-])ccc2N1
solubility (mole fraction)
Conditions | 298.2 K | 303.2 K | 308.2 K | 313.2 K | 318.2 K
in NMP | 0.0132 | 0.0142 | 0.0187 | 0.0207 | 0.0222
in ethanol | 0.000348 | 0.000409 | 0.000533 | 0.00058 | 0.000652
in propylene glycol | 0.000641 | 0.00104 | 0.00108 | 0.00116 | 0.00138
in water | 1.9e-07 | 2.4e-07 | 2.6e-07 | 2.9e-07 | 3.2e-07

Conditions | solubility (mole fraction)
in PEG-200, 298.2 K | 0.01
in PEG-200, 303.2 K | 0.01
in PEG-200, 308.2 K | 0.0134
in PEG-200, 313.2 K | 0.0168
in PEG-200, 318.2 K | 0.0239
